# From ChEMBL document CHEMBL4828768, “Talaromynoids A-I, Highly Oxygenated Meroterpenoids from the Marine-Derived Fungus Talaromyces purpureogenus SCSIO 41517 and Their Lipid Accumulation Inhibitory Activities” (J Nat Prod, 2021)
# pIC50: −log10 of the molar value. Activity calls are given as the source filed them. The rule behind the calls is not given here.
# Key:
# [1] = target: T1, Tyrosine-protein phosphatase non-receptor type 1 (Homo sapiens) (UniProt P18031); assay: Inhibition of human recombinant PTP1B expressed in Escherichia coli assessed as inhibition of phosphatase activity by measuring p-nitrophenyl phosphate at 6.7 microg/ml measured after 60 mins; conditions: dose 6.7 µg/ml
# T1 sequence (whole entry): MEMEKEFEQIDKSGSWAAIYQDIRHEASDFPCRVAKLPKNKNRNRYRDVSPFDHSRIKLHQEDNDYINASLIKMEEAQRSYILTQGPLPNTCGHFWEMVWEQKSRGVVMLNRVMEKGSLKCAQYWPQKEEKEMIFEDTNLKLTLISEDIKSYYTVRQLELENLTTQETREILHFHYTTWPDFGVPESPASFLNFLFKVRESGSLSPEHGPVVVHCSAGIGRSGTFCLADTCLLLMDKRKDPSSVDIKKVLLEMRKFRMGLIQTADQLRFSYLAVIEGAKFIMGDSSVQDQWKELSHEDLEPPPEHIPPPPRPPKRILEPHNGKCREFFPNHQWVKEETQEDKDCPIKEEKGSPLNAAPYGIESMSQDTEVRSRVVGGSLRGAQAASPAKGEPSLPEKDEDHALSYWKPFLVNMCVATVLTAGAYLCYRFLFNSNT
# [2] = target: T2, Tyrosine-protein phosphatase non-receptor type 2 (Homo sapiens) (UniProt P17706); assay: Inhibition of human recombinant TCPTP expressed in Escherichia coli assessed as inhibition of phosphatase activity by measuring p-nitrophenyl phosphate at 6.7 microg/ml measured after 60 mins; conditions: dose 6.7 µg/ml
# T2 sequence (whole entry): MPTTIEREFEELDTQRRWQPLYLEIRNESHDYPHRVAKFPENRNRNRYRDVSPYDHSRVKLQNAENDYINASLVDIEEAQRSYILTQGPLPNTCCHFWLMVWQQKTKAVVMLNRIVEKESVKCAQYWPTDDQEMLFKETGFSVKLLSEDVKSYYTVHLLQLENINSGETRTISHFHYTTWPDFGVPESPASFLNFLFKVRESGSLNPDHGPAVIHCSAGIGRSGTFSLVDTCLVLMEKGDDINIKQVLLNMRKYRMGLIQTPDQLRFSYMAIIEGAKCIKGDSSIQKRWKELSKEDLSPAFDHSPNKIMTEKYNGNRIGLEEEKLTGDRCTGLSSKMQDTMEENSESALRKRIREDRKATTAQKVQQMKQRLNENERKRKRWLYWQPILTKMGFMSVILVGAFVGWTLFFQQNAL
# [3] = target: T3, Tyrosine-protein phosphatase non-receptor type 11 (Homo sapiens) (UniProt Q06124); assay: Inhibition of human recombinant SHP2 expressed in Escherichia coli assessed as inhibition of phosphatase activity by measuring p-nitrophenyl phosphate at 6.7 microg/ml measured after 60 mins; conditions: dose 6.7 µg/ml
# T3 sequence (whole entry): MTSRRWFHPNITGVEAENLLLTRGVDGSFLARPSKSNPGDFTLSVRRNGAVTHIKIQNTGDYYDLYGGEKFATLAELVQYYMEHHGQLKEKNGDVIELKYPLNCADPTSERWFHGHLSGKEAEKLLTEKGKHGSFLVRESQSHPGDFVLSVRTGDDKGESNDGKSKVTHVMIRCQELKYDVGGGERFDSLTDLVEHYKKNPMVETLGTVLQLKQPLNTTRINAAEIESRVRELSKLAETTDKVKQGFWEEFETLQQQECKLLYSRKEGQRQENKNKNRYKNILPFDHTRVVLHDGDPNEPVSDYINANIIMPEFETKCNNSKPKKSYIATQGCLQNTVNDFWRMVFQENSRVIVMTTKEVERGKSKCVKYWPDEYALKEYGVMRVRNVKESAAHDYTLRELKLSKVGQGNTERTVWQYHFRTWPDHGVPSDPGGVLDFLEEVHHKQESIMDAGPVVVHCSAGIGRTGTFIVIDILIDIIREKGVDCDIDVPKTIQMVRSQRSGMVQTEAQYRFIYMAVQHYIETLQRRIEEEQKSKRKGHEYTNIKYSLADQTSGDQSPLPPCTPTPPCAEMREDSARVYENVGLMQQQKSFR
# [4] = target: Tyrosine-protein phosphatase non-receptor type 6 (Homo sapiens) (UniProt P29350); assay: Inhibition of human recombinant SHP1 expressed in Escherichia coli assessed as inhibition of phosphatase activity by measuring p-nitrophenyl phosphate at 6.7 microg/ml measured after 60 mins; conditions: dose 6.7 µg/ml
# [5] = target: T4, M-phase inducer phosphatase 2 (Homo sapiens, UniProt P30305); assay: Inhibition of human recombinant CDC25B expressed in Escherichia coli assessed as inhibition of phosphatase activity by measuring p-nitrophenyl phosphate measured after 60 mins
# T4 sequence (P30305 whole entry): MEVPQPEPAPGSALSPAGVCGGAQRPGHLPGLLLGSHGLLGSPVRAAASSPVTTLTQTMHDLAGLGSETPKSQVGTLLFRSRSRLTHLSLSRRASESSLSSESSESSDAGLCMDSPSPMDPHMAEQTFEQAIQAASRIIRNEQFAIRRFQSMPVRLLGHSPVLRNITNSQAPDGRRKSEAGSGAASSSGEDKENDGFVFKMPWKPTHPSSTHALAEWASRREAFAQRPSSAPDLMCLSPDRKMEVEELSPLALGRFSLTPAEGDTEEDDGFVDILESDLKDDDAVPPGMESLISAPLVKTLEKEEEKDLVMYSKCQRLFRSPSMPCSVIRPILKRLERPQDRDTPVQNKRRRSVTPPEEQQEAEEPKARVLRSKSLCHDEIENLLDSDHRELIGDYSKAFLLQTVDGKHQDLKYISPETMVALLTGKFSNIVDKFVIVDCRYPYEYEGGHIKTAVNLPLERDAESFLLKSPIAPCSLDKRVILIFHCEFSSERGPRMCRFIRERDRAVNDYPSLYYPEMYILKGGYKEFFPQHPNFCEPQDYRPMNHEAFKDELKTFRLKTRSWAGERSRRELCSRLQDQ
# [6] = (§1) Reduction in intracellular triglyceride accumulation in mouse 3T3-L1 cells at 10 uM measured after 3 days; assay type: functional; parameters: scale not given: the % may be the effect or the level left; conditions: time 3 day
# 3T3-L1 = assay: as §1; assay type: functional; conditions: time 3.0 day
# [7] = Reduction in intracellular triglyceride accumulation in mouse 3T3-L1 cells measured after 3 days; assay type: functional, cell-based; conditions: 3T3-L1, 72 h
# Chain of Tyrosine-protein phosphatase non-receptor type 6 (Homo sapiens) (P29350 whole entry): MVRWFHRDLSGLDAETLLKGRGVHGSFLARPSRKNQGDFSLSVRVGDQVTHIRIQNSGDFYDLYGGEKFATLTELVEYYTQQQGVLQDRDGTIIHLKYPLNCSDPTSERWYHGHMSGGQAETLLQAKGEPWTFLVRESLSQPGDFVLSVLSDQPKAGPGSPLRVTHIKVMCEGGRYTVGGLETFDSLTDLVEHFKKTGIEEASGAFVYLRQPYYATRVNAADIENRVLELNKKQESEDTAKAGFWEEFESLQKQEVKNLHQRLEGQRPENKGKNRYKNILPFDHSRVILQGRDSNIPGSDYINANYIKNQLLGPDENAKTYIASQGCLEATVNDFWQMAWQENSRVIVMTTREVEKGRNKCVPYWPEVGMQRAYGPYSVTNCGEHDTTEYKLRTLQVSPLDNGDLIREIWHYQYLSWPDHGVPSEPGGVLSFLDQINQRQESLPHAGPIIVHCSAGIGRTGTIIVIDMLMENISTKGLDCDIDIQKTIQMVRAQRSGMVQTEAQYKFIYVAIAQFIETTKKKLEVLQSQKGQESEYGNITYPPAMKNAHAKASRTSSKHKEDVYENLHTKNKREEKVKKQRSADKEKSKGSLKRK
inhibition [1] [%],inhibition [2] [%],inhibition [3] [%],inhibition [4] [%],pIC50 [5],pIC50 [7],Structure (SMILES),Activity [6] [%],Activity (3T3-L1)
< 60,< 60,< 60,< 60,–,–,COC(=O)CC1=C(C)[C@@H]2C[C@@]3(C)C(=O)O[C@H]4O[C@@H](C)[C@@]5(O)O[C@@H]([C@@H]6O[C@]16C(C)(C)O)[C@]2(C)[C@@]5(C(=O)OC)[C@]43O,–,–
< 60,< 60,< 60,< 60,–,4.68,COC(=O)[C@]12[C@@H]3[C@@H](O)O[C@@H](C)[C@@]14OC(=O)[C@]3(C)C[C@H]1C(C)=C3CC(=O)OC(C)(C)[C@@]35O[C@H]5[C@H](O4)[C@@]12C,–,Active
< 60,< 60,< 60,< 60,–,–,COC(=O)[C@]12[C@@H]3[C@H]4OC(=O)[C@]3(C)C[C@H]3C(C)=C5CC(=O)OC(C)(C)[C@@]56O[C@H]6[C@H](O[C@]1(O)[C@H](C)O4)[C@@]32C,–,–
< 60,< 60,< 60,< 60,–,4.43,CC1=C2CC(=O)OC(C)(C)[C@]23O[C@@H]3[C@@H]2O[C@@]3(O)[C@@H](C)O[C@H]4OC(=O)[C@]5(C)C[C@H]1[C@]2(C)[C@@]31C(=O)O[C@@]415,–,Active
< 60,< 60,< 60,< 60,–,4.54,COC(=O)CC1=C(C)[C@H]2C[C@]3(C)C(=O)O[C@@H]4O[C@H](C)[C@]5(O)O[C@@H]([C@H]6O[C@@]16C(C)(C)O)[C@@]2(C)[C@@]51C(=O)O[C@@]413,–,Active

# Further lines, the compound ahead of its results:
Structure (SMILES),inhibition [1] [%],inhibition [2] [%],inhibition [3] [%],inhibition [4] [%],pIC50 [5],pIC50 [7],Activity [6] [%],Activity (3T3-L1)
COC(=O)[C@@]12[C@@]3(C)[C@@H]4C=C5C(=CC(=O)OC5(C)C)[C@@](C)(O)[C@@H]3C[C@@]3(C)C(=O)O[C@@H](O[C@@H](C)[C@@]1(O)O4)[C@@]23O,< 60,< 60,< 60,< 60,4.89,–,–,–
COC(=O)[C@]12C3=C(C)O[C@@H]4OC(=O)[C@](C)(C[C@H]5C(C)=C6CC(=O)O[C@@]6(C(C)(C)O)[C@@H](C[C@@]51C)O3)[C@@H]42,< 60,< 60,< 60,< 60,–,–,–,–
COC(=O)[C@]12C(=O)[C@H](C)O[C@@H]3OC(=O)[C@](C)(C[C@H]4C(C)=C5CC(=O)OC(C)(C)C5=CC[C@@]41C)[C@@H]32 [BERKELEYACETAL A],< 60,< 60,< 60,< 60,–,–,<60,–
COC(=O)[C@]12C(=O)[C@@](C)(O)C(=O)[C@](C)(C[C@H]3C(C)=C4CC(=O)OC(C)(C)C4=CC[C@@]31C)[C@]21CO1,< 60,< 60,< 60,< 60,–,4.37,–,Active
COC(=O)[C@]12[C@@H]3[C@H]4OC(=O)[C@]3(C)CC3=C(C)C5=C(C[C@H](O[C@]1(O)[C@H](C)O4)[C@@]32C)C(C)(C)OC(=O)C5,< 60,< 60,< 60,< 60,–,–,–,–
COC(=O)CC1=C(C)[C@@H]2C[C@@]3(C)C(=O)O[C@H]4O[C@@H](C)[C@@]5(O)O[C@@H]([C@@H]6O[C@]16C(C)(C)O)[C@]2(C)[C@@]5(C(=O)OC)[C@H]43,< 60,< 60,< 60,< 60,–,–,–,–
CC1=C2CC(=O)OC(C)(C)C2=CC[C@@]2(C)[C@H]1C[C@@](C)(C(=O)O)[C@]13COC(=O)[C@@]12C(=O)[C@H](C)O3,< 60,< 60,< 60,< 60,–,–,<60,–
COC(=O)[C@]12C3=C(C)O[C@@H]4OC(=O)[C@](C)(C[C@H]5C(C)=C6CC(=O)O[C@@]6(C(C)(C)O)[C@H](O3)[C@H](O)[C@@]51C)[C@@H]42,< 60,< 60,< 60,< 60,–,–,–,–
